These results are taken from ChEMBL document CHEMBL1201862, “PubChem BioAssay data set” (2004).

Some test systems named below: SN12C; SW-620; SR; RXF 393; NCI-H226; OVCAR-4; U-251; HCT-15; SF-539; OVCAR-3; IGROV-1; HCT-116; HCC 2998; SF-268; TK-10.
Assay in all cases: NCI-60 cell line screen, 48 h

Each structure is given as a SMILES string.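 48-hour exposure; five concentrations; linearly interpolated endpoints. Here, GI50 denotes the concentration required for 50% inhibition of growth.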 Calls of active or inactive are those of the source. Cut-off read from the data, not from the text of the source: active = GI50 up to about 1.1 µM and inactive = higher.

Regarding `CCCCCCCCCCCCCCCC(=O)NCC(COP(=O)([O-])OCC[N+](C)(C)C)OCC` (centres undefined), the GI50 was 12.5 µM (inactive) in the assay on SN12C; 13 µM (inactive) with SW-620; 4.58 µM (inactive) with SR; 2.1 µM (inactive) in the assay with RXF 393; 3.12 µM (inactive) with NCI-H226; 3.21 µM (inactive) with OVCAR-4. For the same compound, the GI50 in the assay on U-251 was 4.16 µM (inactive); with HCT-15, 6.4 µM; in the assay on SF-539 it was 16.2 µM (inactive); in the assay on OVCAR-3, 6.25 µM (inactive); in the assay on IGROV-1, 4.54 µM (inactive); in the assay on HCT-116, 11.2 µM (inactive). Besides, the GI50 with HCC 2998 is 1.55 µM (inactive); in the assay on SF-268, 12.8 µM (inactive); in the assay with TK-10, 1.63 µM (inactive).
Turning to `CN(C)/N=N/c1cccc(C(N)=O)c1`, the GI50 in the assay with SN12C, in the assay with SW-620, in the assay on SR, in the assay with RXF 393, in the assay on NCI-H226 and with OVCAR-4 was > 100 µM (inactive) in each case. In addition, the GI50 in the assay on U-251 is > 100 µM (inactive); in the assay with HCT-15, > 100 µM; in the assay with SF-539, > 100 µM (inactive); in the assay on OVCAR-3, > 100 µM (inactive); in the assay with IGROV-1, > 100 µM (inactive); in the assay on HCT-116, > 100 µM (inactive). Further, the GI50 in the assay on HCC 2998, in the assay with SF-268 and with TK-10 was > 100 µM (inactive) in each case.
With `COc1ccc(C(=O)C(CC2C(=O)NC(=O)NC2=O)c2ccc(OC)cc2)cc1` (centres undefined), the GI50 in the assay on SN12C, with SW-620, in the assay on SR, in the assay on RXF 393, in the assay with NCI-H226 and with OVCAR-4 was > 100 µM (inactive) throughout. Further, the GI50 with U-251 was > 100 µM (inactive); in the assay on HCT-15 it was > 100 µM; in the assay with SF-539, > 100 µM (inactive); with OVCAR-3, > 100 µM (inactive); in the assay on IGROV-1, > 100 µM (inactive); in the assay with HCT-116, > 100 µM (inactive). Besides, the GI50 in the assay on HCC 2998, in the assay with SF-268 and in the assay with TK-10 was > 100 µM (inactive) throughout.
On to `C=CCC1C(=O)CC2(C)CC(=O)C(CC=C)C12C` (centres undefined), for which the GI50 was > 100 µM (inactive) in the assay on SN12C; > 100 µM (inactive) in the assay on SW-620; > 100 µM (inactive) in the assay on SR; > 100 µM (inactive) in the assay with RXF 393; > 100 µM (inactive) in the assay on NCI-H226; 91 µM (inactive) in the assay on OVCAR-4. The GI50 was > 100 µM (inactive) in the assay with U-251; > 100 µM in the assay with HCT-15; > 100 µM (inactive) in the assay on SF-539; > 100 µM (inactive) in the assay with OVCAR-3; > 100 µM (inactive) in the assay with IGROV-1; > 100 µM (inactive) with HCT-116. Moreover, the GI50 with HCC 2998, with SF-268 and with TK-10 was > 100 µM (inactive) in each case.
For the compound `Cc1nc2sccn2c1C(=O)NN`, the GI50 in the assay with SN12C, with SW-620, in the assay with SR, in the assay with RXF 393, in the assay on NCI-H226 and with U-251 was > 100 µM (inactive) throughout. Moreover, the GI50 in the assay with HCT-15 is > 100 µM; with SF-539 it was > 100 µM (inactive); in the assay on OVCAR-3 it was > 100 µM (inactive); with IGROV-1, > 100 µM (inactive); in the assay on HCT-116, > 100 µM (inactive); in the assay on HCC 2998, > 100 µM (inactive). Also, the GI50 in the assay on SF-268 and in the assay on TK-10 was > 100 µM (inactive) throughout.
